Series [1] has as its system Campylobacter rectus. Briefly: In vitro MIC, Campylobacter rectus. The series is classed as cell-based.
The test system of series [2] is rat mesentery culture. Put plainly: In vitro rat mesentery culture wound closure model. It is filed as cell-based. Conditions: for concentrations of growth factors EGF and FGF: 10 mcg/mL to 1,000 mcg/mL in medium, 2% fetal calf serum; for wound closure: 10 mcg/mL to 1,000 mcg/mL, 24-hour, 48-hour and 72-hour, compared to the placebo. From the text: This tissue culture model is useful for gaining insights into growth factor interactions and wound healing.

For series [3] the following is noted: in vivo; cited from earlier work.
The conditions of series [4]: in vivo; cited from earlier work. This is another data set of the same source.
The nature of series [5]: Freeze-injured skin graft model. The series is classed as in vivo. The note with it: for wound healing rates compared to placebo: Doses of 10 to 1000 mcg/mL; for wound healing in cryoinjured grafts: in vivo.
Series [6] concerns Helicobacter pylori. Briefly: In vitro MIC, Helicobacter pylori. The series is classed as cell-based.
How the values of series [7] were obtained:
Artificial saliva was used (Table 9).
Artificial saliva is used (Table 9).
The test saliva is prepared by dissolving 0.500 g of the antibiotic or antibacterial agent in a 100 mL of the above artificial saliva. […] The denture materials that are exposed to artificial saliva containing the agent or placebo are evaluated.

Series [8] is described as follows: Diabetic mouse wound healing model. The note with it: formulations of 10 mcg/ml to 1,000 mcg/ml. The series is classed as in vivo. The method, then: Further, wound healing potential of the above bismuth compounds is evaluated using a diabetic mouse wound healing model (Matuszewska et al., Pharmaceutical Research 11(1):65-71 (1994), incorporated herein by reference).

For series [9], the system named is H. pylori. Conditions: cited from earlier work.
For series [10] the following is noted: compared with placebo, cimetidine and ranitidine; cited from earlier work.
For series [11], the system named is Treponema denticola. Briefly: In vitro MIC, Treponema denticola. It is filed as cell-based.
Series [12] has as its system H. pylori. The note with it: in vivo; cited from earlier work.

Bounds are passed on as bounds.

colloidal bismuth subcitrate [CBS]: the “minimum effective concentrations (MICs)” value in [1] stood at 256 µg/mL. For the same molecule, in series [2], the “concentrations of growth factors EGF and FGF” value was “Significantly higher”; the wound closure entry is “significantly faster wound closure rate and complete closure”. Further, in [3], the “steady-state blood levels unlikely to cause any neurotoxicity” value was 50-100. In series [4], the “absorption from the GI” value is “not absorbed significantly” and the “secretion in the saliva” value is “produces no salivary concentrations”. Moreover, in series [5], the “wound healing rates compared to placebo” value was “significant increase” and the “wound healing in cryoinjured grafts” value is on record as “stimulates wound healing in cryoinjured grafts in a dose-related fashion”. For the same molecule, in [6], the “minimum effective concentrations (MICs)” value was found to be 2 µg/mL. The “staining, discoloration or changes in texture of natural tooth and denture materials” value in [7] is reported as “did not cause any staining, discoloration, or changes in texture”. Moreover, the “wound healing compared to placebo” value in series [8] is recorded as “heal faster”. Further, the “minimum inhibitory concentration (MIC) against H. pylori” value in series [9] is 8 µg/mL. The “MIC against H. pylori, range” value in [9] (range) was 4 to 32 µg/mL. Moreover, the “relapse rates of duodenal ulcers” value in series [10] is given as “significantly lower relapse rates”. Besides, the “minimum effective concentrations (MICs)” value in series [11] was determined as 32 µg/mL.
With “L-dihydro ascorbyl-tetrakis (hydrogen sulfate) bismuth complex [Bismuth Ascorbyl Sulfate]”, in [1], the “minimum effective concentrations (MICs)” value turned out to be 256 µg/mL. For the same molecule, in [2], the “concentrations of growth factors EGF and FGF” value is given as “Significantly higher”; the wound closure result was “significantly faster wound closure rate and complete closure”. In series [5], the “wound healing rates compared to placebo” value was “significant increase” and the “wound healing in cryoinjured grafts” value is “stimulates wound healing in cryoinjured grafts in a dose-related fashion”. Further, in series [6], the “minimum effective concentrations (MICs)” value came to 8 µg/mL. For the same molecule, in [8], the “wound healing compared to placebo” value is “heal faster”. For the same molecule, the “minimum effective concentrations (MICs)” value in series [11] was 16 µg/mL.
With `CC[C@H]1OC(=O)[C@H](C)[C@@H](O[C@H]2C[C@@](C)(OC)[C@@H](O)[C@H](C)O2)[C@H](C)[C@@H](O[C@@H]2O[C@H](C)C[C@H](N(C)C)[C@H]2O)[C@](C)(OC)C[C@@H](C)C(=O)[C@H](C)[C@@H](O)[C@]1(C)O` [Clarithromycin], the “secretion in the saliva” value in [4] is given as “secreted in the saliva”.
In the case of “beta-D-fructofuranosyl-oktakis (hydrogen sulfate) bismuth complex [Bismuth Sucrose Sulfate]”, the results for the “minimum effective concentrations (MICs)” value in [1], in series [6] and in [11] were more than 256 µg/mL, 16 µg/mL and 32 µg/mL, respectively.
As to `Cc1ncc([N+](=O)[O-])n1CCO` [metronidazole], in series [12], the “eradication rate for H. pylori” value is recorded as 5%.

The values above are taken from US6379651B1, “Oral-topical dosage forms for delivering antibacterials/antibiotics to oral cavity to eradicate H. pylori as a concomitant treatment for peptic ulcers and other gastro-intestinal diseases” (priority 1995, dated 2002).
